# What was measured:
# [1] = Within-participant escalating dose trial Part B: safety and tolerability; format: in vivo, human
# [2] = tested on: adult patients with essential tremor; experiment: Essential tremor trial Example 16 Part B open-label titration phase: TETRAS, mADL, ADL efficacy; format: in vivo, human; design: reduction in upper limb tremor amplitude / LS mean reduction in upper limb tremor amplitude / reduction in combined upper limb tremor amplitude: concentration or dose not given beside the values; settings: for TETRAS ADL Score CFB LS Mean / TETRAS CULS Score CFB LS Mean / TETRAS PS Item 6: Archimedes Spiral (Left) Score CFB LS Mean / TETRAS PS Item 6: Archimedes Spiral (Right) Score CFB LS Mean / TETRAS PS Item 7: Handwriting Score CFB LS Mean / TETRAS PSTS Score CFB LS Mean / TETRAS ULS Score CFB LS Mean / TETRAS mADL (TETRAS modified total score) Score CFB LS Mean / TETRAS ADL CTA LS Mean % / TETRAS CULS CTA LS Mean % / TETRAS PS Item 6: Archimedes Spiral (Left) CTA LS Mean % / TETRAS PS Item 6: Archimedes Spiral (Right) CTA LS Mean % / TETRAS PS Item 7: Handwriting CTA LS Mean % / TETRAS PSTS CTA LS Mean % / TETRAS ULS CTA LS Mean % / TETRAS mADL CTA LS Mean %: Part B - OLT, FAS; for TETRAS ADL Score CFB LS Mean / TETRAS CULS Score CFB LS Mean / TETRAS PS Item 6: Archimedes Spiral (Left) Score CFB LS Mean / TETRAS PS Item 6: Archimedes Spiral (Right) Score CFB LS Mean / TETRAS PS Item 7: Handwriting Score CFB LS Mean / TETRAS PSTS Score CFB LS Mean / TETRAS ULS Score CFB LS Mean / TETRAS mADL (TETRAS modified total score) Score CFB LS Mean: change from pre-dose baseline; for TETRAS ADL CTA LS Mean % / TETRAS CULS CTA LS Mean % / TETRAS PS Item 6: Archimedes Spiral (Left) CTA LS Mean % / TETRAS PS Item 6: Archimedes Spiral (Right) CTA LS Mean % / TETRAS PS Item 7: Handwriting CTA LS Mean % / TETRAS PSTS CTA LS Mean % / TETRAS ULS CTA LS Mean % / TETRAS mADL CTA LS Mean %: from pre-dose baseline
# Experimental: A two part trial (Part A and Part B as described below) was conducted to study the efficacy, safety, tolerability, and pharmacokinetics of the compound of formula (I) in adult patients with essential tremor (ET).
# Participants were males and females ages 18 and older with a clinical diagnosis of ET. Participants who have a history of any other medical, neurological, or psychiatric condition that may explain or cause tremor were excluded. Participants who have previously received treatment with formula (I) in any clinical trial (including Part A of the current trial for participants enrolling in Part B) were also excluded.
# In Part B, an open label titration phase and a randomized, double-blind, placebo-controlled trial was conducted. […] During the withdrawal phase, patients either continued receiving formula (I) at their current dose or switched to placebo, depending on the randomization, for 14 days (Day 43 to Day 56).
smiles,measurement,setting,value
"CC(C)(C)NC(=O)CN1CCC(CNC(=O)c2cc(F)cc(Cl)c2)CC1 [compound of formula (I), N-((1-(2-(tert-butylamino)-2-oxoethyl)piperidin-4-yl)methyl)-3-chloro-5-fluorobenzamide]",maximum tolerated dosage in the titration scheme,[1]; highest dose tested 120 mg,no maximum tolerated dosage was identified
same,Cardiac Disorders,"[1]; human, in vivo, 31 days",4 n (%)
same,Chest discomfort,"[1]; human, in vivo, 31 days",2 n (%)
same,Dizziness,"[1]; human, in vivo, 31 days",3 n (%)
same,General Disorders and Administration Site Conditions,"[1]; human, in vivo, 31 days",6 n (%)
same,Headache,"[1]; human, in vivo, 31 days",2 n (%)
same,Intoxicated sensation,"[1]; human, in vivo, 31 days",2 n (%)
same,Medical device site dermatitis,"[1]; human, in vivo, 31 days",3 n (%)
same,Nervous System Disorders,"[1]; human, in vivo, 31 days",5 n (%)
same,Palpitations,"[1]; human, in vivo, 31 days",2 n (%)
same,Participants with at least one TEAE,"[1]; human, in vivo, 31 days",12 n (%)
same,treatment related ECG or EEG abnormalities,[1]; in vivo,no treatment related ECG or EEG abnormalities
same,dose levels well-tolerated with titration,"[1]; titrated dosing schedule, per day",≤ 120 mg
same,TETRAS ADL Score CFB LS Mean,[2]; Day 7,−1.986
same,TETRAS CULS Score CFB LS Mean,[2]; Day 7,−0.909
same,TETRAS PS Item 6: Archimedes Spiral (Left) Score CFB LS Mean,[2]; Day 7,0.221
same,TETRAS PS Item 6: Archimedes Spiral (Right) Score CFB LS Mean,[2]; Day 7,0.006
same,TETRAS PS Item 7: Handwriting Score CFB LS Mean,[2]; Day 7,−0.019
same,TETRAS PSTS Score CFB LS Mean,[2]; Day 7,−1.253
same,TETRAS ULS Score CFB LS Mean,[2]; Day 7,−0.967
same,TETRAS mADL (TETRAS modified total score) Score CFB LS Mean,[2]; Day 7,−2.862
same,TETRAS ADL CTA LS Mean %,[2]; Day 7,−7.29%
same,TETRAS CULS CTA LS Mean %,[2]; Day 7,−9.1%
same,TETRAS PS Item 6: Archimedes Spiral (Left) CTA LS Mean %,[2]; Day 7,22.4%
same,TETRAS PS Item 6: Archimedes Spiral (Right) CTA LS Mean %,[2]; Day 7,0.6%
same,TETRAS PS Item 7: Handwriting CTA LS Mean %,[2]; Day 7,−2.2%
same,TETRAS PSTS CTA LS Mean %,[2]; Day 7,−8.6%
same,TETRAS ULS CTA LS Mean %,[2]; Day 7,−16.9%
same,TETRAS mADL CTA LS Mean %,[2]; Day 7,−18.49%
same,TETRAS ADL Score CFB LS Mean,[2]; Day 21,−3.475
same,TETRAS CULS Score CFB LS Mean,[2]; Day 21,−1.320
same,TETRAS PS Item 6: Archimedes Spiral (Left) Score CFB LS Mean,[2]; Day 21,−0.012
same,TETRAS PS Item 6: Archimedes Spiral (Right) Score CFB LS Mean,[2]; Day 21,−0.240
same,TETRAS PS Item 7: Handwriting Score CFB LS Mean,[2]; Day 21,0.107
same,TETRAS PSTS Score CFB LS Mean,[2]; Day 21,−1.449
same,TETRAS ULS Score CFB LS Mean,[2]; Day 21,−1.143
same,TETRAS mADL (TETRAS modified total score) Score CFB LS Mean,[2]; Day 21,−2.812
same,TETRAS ADL CTA LS Mean %,[2]; Day 21,−12.02%
same,TETRAS CULS CTA LS Mean %,[2]; Day 21,−12.9%
same,TETRAS PS Item 6: Archimedes Spiral (Left) CTA LS Mean %,[2]; Day 21,−1.3%
same,TETRAS PS Item 6: Archimedes Spiral (Right) CTA LS Mean %,[2]; Day 21,−24.2%
same,TETRAS PS Item 7: Handwriting CTA LS Mean %,[2]; Day 21,11.5%
same,TETRAS PSTS CTA LS Mean %,[2]; Day 21,−9.9%
same,TETRAS ULS CTA LS Mean %,[2]; Day 21,−19.7%
same,TETRAS mADL CTA LS Mean %,[2]; Day 21,−14.31%
same,TETRAS ADL Score CFB LS Mean,"[2]; Day 42, 6 hours post-dose",−8.207
same,TETRAS CULS Score CFB LS Mean,"[2]; Day 42, 6 hours post-dose",−1.882
same,TETRAS PS Item 6: Archimedes Spiral (Left) Score CFB LS Mean,"[2]; Day 42, 6 hours post-dose",−0.072
same,TETRAS PS Item 6: Archimedes Spiral (Right) Score CFB LS Mean,"[2]; Day 42, 6 hours post-dose",−0.239
same,TETRAS PS Item 7: Handwriting Score CFB LS Mean,"[2]; Day 42, 6 hours post-dose",−0.054
same,TETRAS PSTS Score CFB LS Mean,"[2]; Day 42, 6 hours post-dose",−2.771
same,TETRAS ULS Score CFB LS Mean,"[2]; Day 42, 6 hours post-dose",−2.090
same,TETRAS mADL (TETRAS modified total score) Score CFB LS Mean,"[2]; Day 42, 6 hours post-dose",−6.669
same,TETRAS ADL CTA LS Mean %,"[2]; Day 42, 6 hours post-dose",−29.59%
same,TETRAS CULS CTA LS Mean %,"[2]; Day 42, 6 hours post-dose",−17.9%
same,TETRAS PS Item 6: Archimedes Spiral (Left) CTA LS Mean %,"[2]; Day 42, 6 hours post-dose",−8.0%
same,TETRAS PS Item 6: Archimedes Spiral (Right) CTA LS Mean %,"[2]; Day 42, 6 hours post-dose",−24.1%
same,TETRAS PS Item 7: Handwriting CTA LS Mean %,"[2]; Day 42, 6 hours post-dose",−6.0%
same,TETRAS PSTS CTA LS Mean %,"[2]; Day 42, 6 hours post-dose",−18.1%
same,TETRAS ULS CTA LS Mean %,"[2]; Day 42, 6 hours post-dose",−33.0%
same,TETRAS mADL CTA LS Mean %,"[2]; Day 42, 6 hours post-dose",−42.04%
same,"TETRAS ADL score, LS mean change from pre-dose baseline","[2]; Part B OLT, Day 7",−1.986
same,"TETRAS combined upper limb score, LS mean change from pre-dose baseline","[2]; Part B OLT, Day 7",−0.909
same,"TETRAS upper limb score, LS mean change from pre-dose baseline","[2]; Part B OLT, Day 7",−0.967
same,"mADL score, LS mean change from pre-dose baseline","[2]; Part B OLT, Day 7",−2.862
same,reduction in combined upper limb tremor amplitude,"[2]; Part B OLT, Day 7",9.1%
same,reduction in upper limb tremor amplitude,"[2]; Part B OLT, Day 7",16.9%

# Source: patent publication US20250295646A1, “METHODS OF USE OF T-TYPE CALCIUM CHANNEL MODULATORS” (Praxis Precision Medicines, Inc., priority 2022, published 2025)
